Data on 19 compounds can be found in patent US6576620B2, “Method of identifying partial adenosine A1 receptor agonists” (CV Therapeutics, Inc., priority 1999, dated 2003).

Several values for one entry are separate records, joined by “and”; a condition that tells them apart may be missing. Equal values may be shown once. Read-outs that look alike come from different tables or passages of the source.

Assay [1] addresses T1, Adenosine A1 receptor (Cavia porcellus, UniProt P47745).
T1 construct: from tissue; host or cells: guinea pig forebrain membranes
T1 sequence (P47745 1-326): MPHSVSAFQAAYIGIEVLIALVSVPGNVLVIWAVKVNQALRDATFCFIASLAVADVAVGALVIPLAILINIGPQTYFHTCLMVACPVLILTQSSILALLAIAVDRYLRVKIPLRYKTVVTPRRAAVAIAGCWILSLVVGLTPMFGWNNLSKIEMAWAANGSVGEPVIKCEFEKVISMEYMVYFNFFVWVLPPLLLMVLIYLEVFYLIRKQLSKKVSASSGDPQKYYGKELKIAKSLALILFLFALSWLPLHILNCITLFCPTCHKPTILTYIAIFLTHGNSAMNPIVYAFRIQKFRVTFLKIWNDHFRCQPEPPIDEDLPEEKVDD
Description: Affinity binding (Ki) of Tables 4 and 5. On the procedure:
The binding affinity of a compound is evaluated in a competitive binding assay.

Assay [2] relates to Adenosine A1 receptor. Description: A1-agonist stimulated [35S]GTPγS binding to G proteins. The format is biochemical. Conditions: for GTPγS (% of CPA): Table 5; for GTPγS: Table 1, compounds of Example 2, normalized to the full agonist CPA. On the procedure: At the end of the incubation, each suspension was filtered and the retained radioactivity determined as described above.

The subject of assay [3] is guinea pig isolated heart. Description: A-V nodal conduction time / S-H interval, isolated perfused heart. Conditions: for EC50: Cavia porcellus; for S-H interval Efficacy: Table 5, 2759 = CVT-2759. The procedure: This method evaluates the potencies of compounds to cause coronary vasodilation (A2A AdoR response) and to prolong A-V nodal conduction time (A1 AdoR response).
Rats and guinea pigs, of either sex weighing from 230 to 260 grams and 300 to 350 grams, respectively, were used in this study. Animals were anesthetized by peritoneal injection of a cocktail containing ketamine and xylazine (ketamine 100 mg, xylazine 20 mg/ml). The chest was opened and the heart quickly removed. The heart was briefly rinse in ice-cold Krebs-Henseleit solution (see below), and the aorta cannulated. The heart was then perfused at a flow rate of 10 ml/min with modified Krebs-Henseleit (K-H) solution containing NaCl 117.9, KCl 4.5, CaCl2 2.5, MgSO4 1.18, KH2PO4 1.18, pyruvate 2.0 mmol. The K-H solution (pH 7.4) was gassed continuously with 95% O2 and 5% CO2 and warmed to 35±0.50° C. The heart was electrically paced at a fixed cycle length of […] (250 beats/min) using a bipolar electrode place on the left atrium. The electrical stimuli were generated by a Grass stimulator (Model S48, W. Warwick, R.I.) and delivered through a Stimuli Isolation Unit (Model SIU5, Astro-Med, Inc., NY) as square-wave pulses of 3-msec in duration and amplitude of at least twice the threshold intensity.
A1 adenosine receptor-mediated depression of A-V nodal conduction time (negative dromotropic effect) was measured. Atrial and ventricular surface electrograms in rats and His bundle electrogram in guinea pigs, were recorded during constant atrial pacing.
The effects of compounds on coronary conductance (A2A effect) and atrioventricular conduction time or stimulus-to-His-bundle (S-H) interval (A1 effect) was then determined. Hearts were instrumented for continuous recording of coronary perfusion pressure (A2A response) and atrioventricular (A-V) conduction time or S-H interval (A1 response). In each experiment, concentration-response relationship of compounds to increase coronary conductance and to prolong A-V conduction time or S-H interval was determined. After control measurements of CPP and A-V conduction time or S-H interval were made, progressive higher concentrations of the compound studied was administered until maximal coronary vasodilation and A-V nodal conduction time or S-H interval prolongation were achieved.
Guinea pigs (Hartley) of either sex weighing 300-350 g were anaesthetized with methoxyflurane and killed by decapitation. The chest was cut open and the heart was removed quickly and rinsed in ice-cold modified Krebs-Henseleit (K-H) solution. The contents of the modified K-H solution were (in mM): NaCl 117.9, KCl 4.8, CaCl2 2.5, MgSO2 1.18, KH2PO4 1.2, Na2 EDTA 0.5, ascorbic acid 0.14, dextrose 5.5, pyruvic acid (sodium salt) 2.0, and NaHCO3 25. The K-H solution was continuously gassed with 95% oxygen and 5% CO2, and the pH was adjusted to a value of 7.4. To perfuse the heart by the Langendorff method, the transected aorta was slid onto a glass cannula and secured by a ligature. Retrograde perfusion of the aorta was initiated immediately at a constant flow of 10 ml min-′ with modified K-H solution warmed to 36.0±0.5° C. A side port in the cannula was used to connect the perfusion line to a Gould pressure transducer for measurement of coronary perfusion pressure. Coronary perfusion pressure was continuously recorded on a strip chart (Gould RS3400, Cleveland, Ohio) throughout each experiment. Coronary conductance (in ml min^−1 mmHg^−1) was calculated as the ratio of coronary flow (10 ml min^−1) to perfusion pressure (mm Hg). To facilitate the exit of fluid from the left ventricle, the leaflets of the mitral valve were trimmed with fine spring-handled scissors. When appropriate, hearts were paced at a constant rate using external electrodes. […]

[4] abbreviates: Table 4, A-V nodal conduction time, read-out: EC50 A-V NCT.
[5] abbreviates: Table 5, S-H interval, read-out: EC50.

Consider `O[C@@H]1[C@H](O)[C@@H](CSc2ccccc2F)O[C@H]1n1cnc2c(N[C@@H]3CCOC3)ncnc21` [Compound 21 of Example 4, 2-{6-[((3R)oxolan-3-yl)amino]purin-9-yl}(4S,5S,2R,3R)-5-[(2-fluorophenylthio)methyl]oxolane-3,4-diol], for which the Ki is 600 nM on Adenosine A1 receptor [1] (Table 4, read-out: Ki low); 372 nM and 221 nM at Adenosine A1 receptor [1] (Table 5, read-out: Ki). Moreover, the “GTPγS (% of CPA)” value in the assay on Adenosine A1 receptor [2] is given as 72 % of CPA. For the same compound, the figures for the EC50 in assay [3] (setting [4]) and in assay [3] (setting [5]) were 1200 nM and 1260 nM, respectively. Besides, the “S-H interval Efficacy” value in assay [3] is “Partial (>2759)”. On to `CCCNC(=S)OC[C@H]1O[C@@H](n2cnc3c(N[C@@H]4CCOC4)nc(Cl)nc32)[C@H](O)[C@@H]1O` [Compound 83 of Example 2, 2-{6-[((3R)oxolan-3-yl)amino]-2-chloropurin-9-yl}(4S,2R,3R,5R)-5-{[(propylamino)thioxomethoxy]methyl}oxolane-3,4-diol], for which the Ki at Adenosine A1 receptor [1] (Table 5, read-out: Ki) was found to be 443 nM. Besides, in the assay on Adenosine A1 receptor [2], the “GTPγS (% of CPA)” value is on record as 77 % of CPA. Besides, the EC50 in assay [3] (setting [5]) stood at 610 nM. In addition, the “S-H interval Efficacy” value in assay [3] is given as “Partial”.

With `CNC(=O)OC[C@H]1O[C@@H](n2cnc3c(N[C@@H]4CCOC4)ncnc32)[C@H](O)[C@@H]1O` [compound 6], on Adenosine A1 receptor [1] (Table 4, read-out: Ki low), the Ki amounted to 2600 nM. In addition, in assay [3] (setting [4]), the EC50 is 3100 nM. For `CNC(=S)OC[C@H]1O[C@@H](n2cnc3c(N[C@@H]4CCOC4)ncnc32)[C@H](O)[C@@H]1O` [Compound 45 of Example 2, 2-{6-[((3R)oxolan-3-yl)amino]purin-9-yl}(4S,2R,3R,5R)-5-{[(methylamino)thioxomethoxy]methyl}oxolane-3,4-diol], the Ki on Adenosine A1 receptor [1] (Table 4, read-out: Ki low) came out at 400 nM; on Adenosine A1 receptor [1] (Table 5, read-out: Ki) it was 346 nM. For the same compound, the GTPγS with Adenosine A1 receptor [2] stood at 77%. Besides, the “GTPγS (% of CPA)” value in the assay with Adenosine A1 receptor [2] was 77 % of CPA. The EC50 is 600 nM in assay [3] (setting [4]) and 570 nM in assay [3] (setting [5]). Besides, the “S-H interval Efficacy” value in assay [3] is “Partial”. Take `CCCCNC(=O)OCC1OC(n2cnc3c(N[C@@H]4CCOC4)ncnc32)C(O)C1O` (stereo partly shown) [compound 27]: the inhibition constant (Ki) on Adenosine A1 receptor [1] (Table 5, read-out: Ki) came out at 9630 nM. As for `C=CCNC(=O)OC[C@H]1O[C@@H](n2cnc3c(N[C@@H]4CCOC4)ncnc32)[C@H](O)[C@@H]1O` [Compound 41 of Example 2, [(5-{6-[((3R)oxolan-3-yl)amino]purin-9-yl}(3S,2R,4R,5R)-3,4-dihydroxyoxolan-2-yl)methoxy]-N-prop-2-enylcarboxamide], the GTPγS in the assay with Adenosine A1 receptor [2] was found to be 48%. For `COC(=O)C1CCCC1NC(=O)OC[C@H]1O[C@@H](n2cnc3c(N[C@@H]4CCOC4)ncnc32)[C@H](O)[C@@H]1O` (stereo partly shown) [Compound 34 of Example 2], the GTPγS with Adenosine A1 receptor [2] turned out to be 17%. As to `CCCn1c(=O)c2[nH]c(C3CCCC3)nc2n(CCC)c1=O` [CPX, 8-cyclopentyl-1,3-dipropylxanthine, reference compound], the S-H interval in assay [3] (50 nM CPX in continued presence of 10 μM Compound 6 of Example 2 (58±2 msec before CPX)) was determined as 50 ± 2 ms. The compound `O[C@@H]1[C@H](O)[C@@H](COC(=S)NCc2ccccc2)O[C@H]1n1cnc2c(N[C@@H]3CCOC3)ncnc21` [Compound 54 of Example 2, 2-{6-[((3R)oxolan-3-yl)amino]purin-9-yl}(4S,2R,3R,5R)-5-({[benzylamino]thioxomethoxy}methyl)oxolane-3,4-diol] came in with a GTPγS with Adenosine A1 receptor [2] of 93%. `O[C@@H]1[C@H](O)[C@@H](COC(=S)N2CCCCC2)O[C@H]1n1cnc2c(N[C@@H]3CCOC3)ncnc21` [Compound 50 of Example 2, 2-{6-[((3R)oxolan-3-yl)amino]purin-9-yl}(4S,2R,3R,5R)-5-[(piperidylthioxomethoxy)methyl]oxolane-3,4-diol] yielded a GTPγS in the assay with Adenosine A1 receptor [2] of 88%. Compound `O=c1occn1C[C@H]1OC(n2cnc3c(N[C@@H]4CCOC4)ncnc32)[C@H](O)[C@@H]1O` (stereo partly drawn) [Compound 80 of Example 2, 3-[(5-{6-[((3R)oxolan-3-yl)amino]purin-9-yl}(3S,2R,4R)-3,4-dihydroxyoxolan-2-yl)methyl]-1,3-oxazolin-2-one] returned a GTPγS with Adenosine A1 receptor [2] of 80%. On the same count and under the same terms, then `C=CCNC(=S)OC[C@H]1O[C@@H](n2cnc3c(N[C@@H]4CCOC4)ncnc32)[C@H](O)[C@@H]1O` [Compound 60 of Example 2, 2-{6-[((3R)oxolan-3-yl)amino]purin-9-yl}(4S,2R,3R,5R)-5-{[(prop-2-enylamino)thioxomethoxy]methyl}oxolane-3,4-diol], with 77%; and `O[C@@H]1[C@H](O)[C@@H](COC(=S)NC2CCCCC2)O[C@H]1n1cnc2c(N[C@@H]3CCOC3)ncnc21` [Compound 55 of Example 2, 2-{6-[((3R)oxolan-3-yl)amino]purin-9-yl}(4S,2R,3R,5R)-5-({[cyclohexylamino]thioxomethoxy}methyl)oxolane-3,4-diol], with 82%; and `O[C@@H]1[C@H](O)[C@@H](COC(=S)N[C@H]2CCC[C@@H]2O)O[C@H]1n1cnc2c(N[C@@H]3CCOC3)ncnc21` [Compound 64 of Example 2, 2-{6-[((3R)oxolan-3-yl)amino]purin-9-yl}(4S,2R,3R,5R)-5-({[((1S,2S)-2-hydroxycyclopentyl)amino]thioxomethoxy}methyl)oxolane-3,4-diol], with 99%.

On to `CCOC(=O)[C@H]1C2CCC(C2)[C@H]1NC(=O)OC[C@H]1O[C@@H](n2cnc3c(N[C@@H]4CCOC4)ncnc32)[C@H](O)[C@@H]1O` (stereo partly shown) [Compound 36 of Example 2], for which the GTPγS with Adenosine A1 receptor [2] amounted to 41%.

With `O[C@@H]1[C@H](O)[C@@H](COC(=S)NC2CCC2)O[C@H]1n1cnc2c(NC3CCOC3)ncnc21` (stereo partly drawn) [Compound 58 of Example 2, 2-{6-[((3)oxolan-3-yl)amino]purin-9-yl}(4S,2R,3R,5R)-5{[(cyclobutylamino)thioxomethoxy]methyl}oxolane-3,4-diol], in the assay on Adenosine A1 receptor [2], the GTPγS is 79%.

`O=C(NC1CCCC1)SC[C@H]1O[C@@H](n2cnc3c(N[C@@H]4CCOC4)ncnc32)[C@H](O)[C@@H]1O` [Compound 73 of Example 2, [(5-{6-[((3R)oxolan-3-yl)amino]purin-9-yl}(2S,3S,4R,5R)-3,4-dihydroxyoxolan-2-yl)methythio]-N-cyclopentylcarboxamide]: in the assay with Adenosine A1 receptor [2], the GTPγS was determined as 109%. On to `CC(C)NC(=S)OC[C@H]1O[C@@H](n2cnc3c(N[C@@H]4CCOC4)ncnc32)[C@H](O)[C@@H]1O` [Compound 47 of Example 2, 2-{6-[((3R)oxolan-3-yl)amino]purin-9-yl}(4S,2R,3R,5R)-5-({[(methylethyl)amino]thioxomethoxy}methyl)oxolane-3,4-diol], for which, on Adenosine A1 receptor [1] (Table 5, read-out: Ki), the inhibition constant (Ki) worked out at 1370 nM. In the assay with Adenosine A1 receptor [2], `O[C@@H]1[C@H](O)[C@@H](COC(=S)N[C@H]2CCC[C@@H]2OCc2ccccc2)O[C@H]1n1cnc2c(N[C@@H]3CCOC3)ncnc21` [Compound 56 of Example 2, 2-{6-[((3R)oxolan-3-yl)amino]purin-9-yl}(4S,2R,3R,5R)-5-[({[(1S,2S)-2-(phenylmethoxy)cyclopentyl]amino}thioxomethoxy)methyl]oxolane-3,4-diol] showed a GTPγS of 52%.
